Reference: PMC2882332, “Species Used for Drug Testing Reveal Different Inhibition Susceptibility for 17beta-Hydroxysteroid Dehydrogenase Type 1” (PLoS ONE, 2010)

biological target: T1, marmoset 17β-HSD 1 (Callithrix jacchus, UniProt Q9GME2); experiment: In vitro enzymatic activity, recombinant marmoset 17β-HSD 1; type: biochemical; conditions: not given
T1 sequence (Q9GME2 1-314): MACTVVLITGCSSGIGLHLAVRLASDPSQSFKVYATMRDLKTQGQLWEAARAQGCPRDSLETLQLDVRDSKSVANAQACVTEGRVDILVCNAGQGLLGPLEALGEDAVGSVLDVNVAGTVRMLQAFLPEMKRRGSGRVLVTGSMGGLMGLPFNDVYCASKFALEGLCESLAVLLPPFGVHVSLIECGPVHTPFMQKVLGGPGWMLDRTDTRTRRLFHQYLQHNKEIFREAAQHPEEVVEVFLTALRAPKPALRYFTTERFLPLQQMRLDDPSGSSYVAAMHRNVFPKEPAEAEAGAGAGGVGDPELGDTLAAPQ
Text: Full length cDNAs of several 17β-HSDs type 1 originating from different species were cloned either into the pQE30 vector (human 17β-HSD 1, coding for acc. no. NP_000404) for expression as His-Tag protein or into a modified pGex-2T vector [63] (mouse 17β-HSD 1, acc. no. NP_034605; rat 17β-HSD 1, acc. no. NP_036983; marmoset 17β-HSD 1, acc. no. AAG01115; porcine 17β-HSD 1, acc. no. NP_001121944) for expression as GST-fusion proteins. The marmoset 17β-HSD 1 enzyme sequence was updated by the missing N-terminal part (AF272013) and the new porcine sequence was submitted to GenBank (NP_001121944). Human 17β-HSDs 2, 4, 5 (AKR1C3, the latter kindly provided by Dr. T. Penning) and 7 were all cloned into the modified pGEX-2T vector. For 17β-HSD 4 only the SDR-domain converting the steroids was subcloned. Plasmids were transformed into E.coli BL21 DE3 Codon Plus RP (Stratagene) and enzyme expression was induced by 0.5 mM IPTG. After 4h incubation at 37°C with continuous shaking bacteria were pelleted by centrifugation at 10.000×g. Pellets were stored until use at −20°C.
The bacteria containing recombinant enzymes were resuspended in PBS and enzymatic assays were performed in 100 mM sodium phosphate buffer at pH 6.6 for the reductive reaction and at pH 7.7 for the oxidative reaction. […] All substrates were purchased from NEN/Perkin Elmer. The cofactors NADPH (Sigma; for reductive reactions) and NAD^+ (Serva, for oxidative reactions) were used at final concentrations of 0.5 mg/ml. […] The incubation at 37°C was stopped with 0.21 M ascorbic acid in methanol∶acetic acid 99∶1 (v∶v) after the time needed to convert approximately 30% of the substrate in a control assay with 1% DMSO, without inhibitor candidates. […] The solvent used was acetonitrile∶water (43∶57, v∶v) at a flow rate of 1 ml/min. Radioactivity was detected by online-scintillation counting (Berthold LB506D) after mixing with ReadyFlowIII (Beckman). Conversion was calculated from integration of substrate and product peaks. […] All assays were run in duplicates of two independent experiments and mean values are reported. The IC50 values were determined by the One Ligand Binding model of SigmaPlot kinetics module.

Row | Compound | IC50 [µM]
1 | Cc1cnc(NC(=O)CC[C@@H]2CC(=O)[C@@]3(C)CC[C@@H]4c5ccc(O)cc5CC[C@H]4[C@H]23)s1 [Compound 3] | 0.0953

same assay, conditions: marmoset 17β-HSD 1; 2 µM compound; 15 nM 3H-estrone; read-out: Observed % inhibition

Row | Compound | inhibition at 2 µM [%]
2 | C[C@]12CC[C@@H]3c4ccc(O)cc4CC[C@H]3[C@@H]1[C@@H](CNC(=O)c1ccc(F)cc1)CC2=O [Compound 1] | 30.6
3 | C[C@]12CC[C@@H]3c4ccc(O)cc4CC[C@H]3[C@@H]1[C@@H](CCCC(=O)N1CCOCC1)CC2=O [Compound 2] | 60.3
4 | Cc1cnc(NC(=O)CC[C@@H]2CC(=O)[C@@]3(C)CC[C@@H]4c5ccc(O)cc5CC[C@H]4[C@H]23)s1 [Compound 3] | 98.5
5 | COc1ccc(-c2cn(CCC[C@H]3CC(=O)[C@@]4(C)CC[C@@H]5c6ccc(O)cc6CC[C@H]5[C@H]34)nn2)cc1 [Compound 4] | 85.2
6 | C[C@]12CC[C@@H]3c4ccc(O)cc4CC[C@H]3[C@@H]1C[C@H](CC(=O)NCc1cccnc1)C2=O [Compound 5, reference compound] | 45.6
